Assay results as given in ChEMBL document CHEMBL5715954, “Silencing c-Myc translation as a therapeutic strategy through targeting PI3Kδ and CK1ε in hematological malignancies” (Blood, 2017).

How the values were obtained:
Design in all cases: scale not given: the % may be the effect or the level left
[1] = molecular target: Tyrosine-protein kinase receptor UFO (Homo sapiens) (UniProt P30530); assay: Inhibition of human AXL assessed as enzyme activity at 1 uM using poly[Glu:Tyr] (4:1) as substrate preincubated for 20 mins followed by [gamma-33P]-ATP addition and measured after 120 mins by radiometric Hot-SpotSM Kinase assay relative to control
[2] = molecular target: T1, Cytoplasmic tyrosine-protein kinase BMX (Homo sapiens) (UniProt P51813); assay: Inhibition of human BMX assessed as enzyme activity at 1 uM using poly[Glu:Tyr] (4:1) as substrate preincubated for 20 mins followed by [gamma-33P]-ATP addition and measured after 120 mins by radiometric Hot-SpotSM Kinase assay relative to control
T1 sequence (whole entry): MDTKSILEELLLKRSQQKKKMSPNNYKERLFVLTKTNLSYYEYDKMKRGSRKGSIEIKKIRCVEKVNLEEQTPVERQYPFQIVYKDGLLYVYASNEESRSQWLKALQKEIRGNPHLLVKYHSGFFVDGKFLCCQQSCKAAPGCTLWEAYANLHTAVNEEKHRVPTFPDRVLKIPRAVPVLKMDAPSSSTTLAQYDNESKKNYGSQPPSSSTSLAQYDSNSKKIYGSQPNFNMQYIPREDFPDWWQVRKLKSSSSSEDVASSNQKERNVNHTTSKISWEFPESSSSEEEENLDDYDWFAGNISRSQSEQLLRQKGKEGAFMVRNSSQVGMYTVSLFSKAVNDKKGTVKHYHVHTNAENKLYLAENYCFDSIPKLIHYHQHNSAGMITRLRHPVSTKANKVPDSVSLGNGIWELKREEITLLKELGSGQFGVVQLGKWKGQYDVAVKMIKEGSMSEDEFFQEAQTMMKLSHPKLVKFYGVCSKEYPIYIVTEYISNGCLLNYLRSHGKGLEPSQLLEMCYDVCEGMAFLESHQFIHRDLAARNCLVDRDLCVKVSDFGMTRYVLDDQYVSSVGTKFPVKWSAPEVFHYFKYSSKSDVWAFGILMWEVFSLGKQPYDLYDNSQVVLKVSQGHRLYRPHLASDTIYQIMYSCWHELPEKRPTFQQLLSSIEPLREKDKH

[3] = molecular target: Calcium/calmodulin-dependent protein kinase type II subunit delta (Homo sapiens) (UniProt Q13557); assay: Inhibition of human CAMK2d assessed as enzyme activity at 1 uM using KKLNRTLSFAEPG as substrate preincubated for 20 mins followed by [gamma-33P]-ATP addition and measured after 120 mins by radiometric Hot-SpotSM Kinase assay relative to control
[4] = molecular target: CDK1/Cyclin E (Homo sapiens) (UniProt P06493+P24864); assay: Inhibition of human CDK1/cyclin E assessed as enzyme activity at 1 uM using RB Protein as substrate preincubated for 20 mins followed by [gamma-33P]-ATP addition and measured after 120 mins by radiometric Hot-SpotSM Kinase assay relative to control; assay type: protein-complex assay
[5] = molecular target: Mitogen-activated protein kinase kinase kinase kinase 5 (Homo sapiens) (UniProt Q9Y4K4); assay: Inhibition of human KHS assessed as enzyme activity at 1 uM using myelin basic protein as substrate preincubated for 20 mins followed by [gamma-33P]-ATP addition and measured after 120 mins by radiometric Hot-SpotSM Kinase assay relative to control
[6] = molecular target: Leucine-rich repeat serine/threonine-protein kinase 2 (Homo sapiens) (UniProt Q5S007); assay: Inhibition of human LRRK2 assessed as enzyme activity at 1 uM using RLGRDKYKTLRQIRQ as substrate preincubated for 20 mins followed by [gamma-33P]-ATP addition and measured after 120 mins by radiometric Hot-SpotSM Kinase assay relative to control
[7] = molecular target: T2, Serine/threonine-protein kinase NLK (Homo sapiens) (UniProt Q9UBE8); assay: Inhibition of human NLK assessed as enzyme activity at 1 uM using myelin basic protein as substrate preincubated for 20 mins followed by [gamma-33P]-ATP addition and measured after 120 mins by radiometric Hot-SpotSM Kinase assay relative to control
T2 sequence (whole entry): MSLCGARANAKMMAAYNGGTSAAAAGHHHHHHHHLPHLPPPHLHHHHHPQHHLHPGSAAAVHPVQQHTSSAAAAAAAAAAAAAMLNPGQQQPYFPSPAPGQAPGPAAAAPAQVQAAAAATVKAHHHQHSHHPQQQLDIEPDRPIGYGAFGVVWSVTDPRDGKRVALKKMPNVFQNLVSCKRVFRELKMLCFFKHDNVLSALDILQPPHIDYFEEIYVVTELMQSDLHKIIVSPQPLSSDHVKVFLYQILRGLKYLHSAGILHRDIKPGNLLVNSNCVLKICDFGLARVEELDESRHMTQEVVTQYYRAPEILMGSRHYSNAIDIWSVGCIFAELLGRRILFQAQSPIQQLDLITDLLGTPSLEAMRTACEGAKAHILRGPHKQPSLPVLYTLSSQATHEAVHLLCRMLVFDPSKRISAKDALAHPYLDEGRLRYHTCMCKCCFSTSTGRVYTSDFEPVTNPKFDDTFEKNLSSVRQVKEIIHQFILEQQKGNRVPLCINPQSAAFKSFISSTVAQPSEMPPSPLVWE

[8] = molecular target: Protein kinase C eta type (Homo sapiens) (UniProt P24723); assay: Inhibition of human PKCeta assessed as enzyme activity at 1 uM using ERMRPRKRQGSVRRRV as substrate preincubated for 20 mins followed by [gamma-33P]-ATP addition and measured after 120 mins by radiometric Hot-SpotSM Kinase assay relative to control
[9] = molecular target: SRSF protein kinase 2 (Homo sapiens) (UniProt P78362); assay: Inhibition of human SRPK2 assessed as enzyme activity at 1 uM using GRSRSRSRSR as substrate preincubated for 20 mins followed by [gamma-33P]-ATP addition and measured after 120 mins by radiometric Hot-SpotSM Kinase assay relative to control
[10] = molecular target: TGF-beta receptor type-2 (Homo sapiens) (UniProt P37173); assay: Inhibition of human TGFBR2 assessed as enzyme activity at 1 uM using myelin basic protein as substrate preincubated for 20 mins followed by [gamma-33P]-ATP addition and measured after 120 mins by radiometric Hot-SpotSM Kinase assay relative to control
Chain of TGF-beta receptor type-2 (Homo sapiens) (P37173 whole entry): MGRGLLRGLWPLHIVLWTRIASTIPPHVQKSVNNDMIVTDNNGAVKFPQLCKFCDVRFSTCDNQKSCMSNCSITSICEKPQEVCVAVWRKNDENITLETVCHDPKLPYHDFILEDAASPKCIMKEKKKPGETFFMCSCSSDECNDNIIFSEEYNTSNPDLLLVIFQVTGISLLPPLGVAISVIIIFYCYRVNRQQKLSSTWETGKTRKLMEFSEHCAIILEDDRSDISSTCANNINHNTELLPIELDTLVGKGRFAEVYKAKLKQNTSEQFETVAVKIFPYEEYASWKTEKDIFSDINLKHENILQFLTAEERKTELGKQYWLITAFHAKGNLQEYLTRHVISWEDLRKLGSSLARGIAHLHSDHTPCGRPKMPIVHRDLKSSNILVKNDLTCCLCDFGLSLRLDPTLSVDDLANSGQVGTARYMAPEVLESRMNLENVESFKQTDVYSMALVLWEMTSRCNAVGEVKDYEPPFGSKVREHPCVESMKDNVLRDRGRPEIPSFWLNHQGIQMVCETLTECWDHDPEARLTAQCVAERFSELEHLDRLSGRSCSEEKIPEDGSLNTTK

Chain of SRSF protein kinase 2 (Homo sapiens) (P78362 whole entry, looked up): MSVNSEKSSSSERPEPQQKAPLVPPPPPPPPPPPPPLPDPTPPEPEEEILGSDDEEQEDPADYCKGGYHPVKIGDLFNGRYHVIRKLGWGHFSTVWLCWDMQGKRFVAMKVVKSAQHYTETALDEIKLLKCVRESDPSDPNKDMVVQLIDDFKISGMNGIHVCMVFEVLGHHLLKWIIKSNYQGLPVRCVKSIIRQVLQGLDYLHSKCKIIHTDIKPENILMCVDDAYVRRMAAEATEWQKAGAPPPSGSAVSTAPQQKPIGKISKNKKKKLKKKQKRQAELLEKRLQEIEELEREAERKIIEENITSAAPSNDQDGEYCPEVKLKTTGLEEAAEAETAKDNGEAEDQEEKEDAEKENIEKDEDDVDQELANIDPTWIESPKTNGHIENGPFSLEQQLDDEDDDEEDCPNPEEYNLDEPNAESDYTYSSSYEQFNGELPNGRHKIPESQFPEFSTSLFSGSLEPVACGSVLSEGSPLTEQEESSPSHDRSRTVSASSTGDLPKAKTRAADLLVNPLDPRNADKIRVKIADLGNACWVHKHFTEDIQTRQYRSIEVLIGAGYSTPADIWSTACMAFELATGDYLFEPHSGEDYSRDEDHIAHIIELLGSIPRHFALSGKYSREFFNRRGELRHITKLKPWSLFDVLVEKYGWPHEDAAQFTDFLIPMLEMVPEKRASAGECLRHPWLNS
Chain of CDK1/Cyclin E (Homo sapiens) (P06493 whole entry, looked up): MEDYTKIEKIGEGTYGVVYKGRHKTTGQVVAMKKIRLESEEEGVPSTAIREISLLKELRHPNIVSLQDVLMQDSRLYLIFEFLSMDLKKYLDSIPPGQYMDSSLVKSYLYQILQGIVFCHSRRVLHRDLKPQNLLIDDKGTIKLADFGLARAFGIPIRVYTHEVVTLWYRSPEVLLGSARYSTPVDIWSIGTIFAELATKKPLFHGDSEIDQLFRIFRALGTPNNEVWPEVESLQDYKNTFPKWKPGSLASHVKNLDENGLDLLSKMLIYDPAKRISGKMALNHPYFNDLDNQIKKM
Chain of CDK1/Cyclin E (Homo sapiens) (P24864 whole entry, looked up): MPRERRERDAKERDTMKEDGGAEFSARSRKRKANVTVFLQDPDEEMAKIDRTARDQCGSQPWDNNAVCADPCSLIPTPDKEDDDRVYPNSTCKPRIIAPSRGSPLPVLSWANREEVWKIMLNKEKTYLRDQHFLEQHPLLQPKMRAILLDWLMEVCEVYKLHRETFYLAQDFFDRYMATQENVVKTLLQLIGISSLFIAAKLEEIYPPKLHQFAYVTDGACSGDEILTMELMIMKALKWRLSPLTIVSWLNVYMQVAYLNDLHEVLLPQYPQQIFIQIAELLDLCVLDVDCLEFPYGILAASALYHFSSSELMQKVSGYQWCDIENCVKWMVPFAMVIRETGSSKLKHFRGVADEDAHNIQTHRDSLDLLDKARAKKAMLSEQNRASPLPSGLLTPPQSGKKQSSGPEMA
Chain of Tyrosine-protein kinase receptor UFO (Homo sapiens) (P30530 whole entry): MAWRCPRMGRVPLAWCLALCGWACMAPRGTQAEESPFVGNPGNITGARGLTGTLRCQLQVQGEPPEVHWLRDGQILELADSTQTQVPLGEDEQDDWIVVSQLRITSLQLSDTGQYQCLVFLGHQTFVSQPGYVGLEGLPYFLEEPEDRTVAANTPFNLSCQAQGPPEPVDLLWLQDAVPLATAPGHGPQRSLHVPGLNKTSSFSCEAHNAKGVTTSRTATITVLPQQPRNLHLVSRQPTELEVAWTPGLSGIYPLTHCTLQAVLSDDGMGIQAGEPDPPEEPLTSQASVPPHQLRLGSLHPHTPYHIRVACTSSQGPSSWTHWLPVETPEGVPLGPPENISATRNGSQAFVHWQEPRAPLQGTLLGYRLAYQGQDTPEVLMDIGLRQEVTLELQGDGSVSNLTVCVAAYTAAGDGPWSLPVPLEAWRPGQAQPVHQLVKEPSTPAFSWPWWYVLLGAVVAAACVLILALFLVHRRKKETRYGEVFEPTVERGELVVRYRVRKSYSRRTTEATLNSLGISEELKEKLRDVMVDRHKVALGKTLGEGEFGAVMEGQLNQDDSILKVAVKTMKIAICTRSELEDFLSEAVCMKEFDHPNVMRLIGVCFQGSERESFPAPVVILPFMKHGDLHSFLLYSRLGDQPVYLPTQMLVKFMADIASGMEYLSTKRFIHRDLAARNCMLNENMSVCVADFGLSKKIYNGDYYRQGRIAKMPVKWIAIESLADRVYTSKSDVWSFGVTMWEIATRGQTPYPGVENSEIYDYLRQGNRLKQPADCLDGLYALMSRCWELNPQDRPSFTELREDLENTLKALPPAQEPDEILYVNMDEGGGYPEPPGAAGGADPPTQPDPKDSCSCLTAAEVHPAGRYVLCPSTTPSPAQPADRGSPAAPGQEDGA
Chain of Calcium/calmodulin-dependent protein kinase type II subunit delta (Homo sapiens) (Q13557 whole entry): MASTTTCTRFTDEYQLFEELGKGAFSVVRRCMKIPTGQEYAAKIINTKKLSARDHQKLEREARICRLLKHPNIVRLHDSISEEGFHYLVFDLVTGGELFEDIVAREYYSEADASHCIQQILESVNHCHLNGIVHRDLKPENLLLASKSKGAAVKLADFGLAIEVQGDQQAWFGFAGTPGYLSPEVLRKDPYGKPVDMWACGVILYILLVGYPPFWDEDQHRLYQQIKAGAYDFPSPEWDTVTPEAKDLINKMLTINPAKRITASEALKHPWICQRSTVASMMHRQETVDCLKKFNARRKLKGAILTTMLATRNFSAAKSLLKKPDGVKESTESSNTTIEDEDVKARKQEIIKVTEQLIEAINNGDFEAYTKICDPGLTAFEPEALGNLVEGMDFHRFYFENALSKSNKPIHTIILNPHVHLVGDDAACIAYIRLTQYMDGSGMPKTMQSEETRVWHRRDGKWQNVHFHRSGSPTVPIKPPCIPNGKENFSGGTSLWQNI
Chain of Protein kinase C eta type (Homo sapiens) (P24723 whole entry): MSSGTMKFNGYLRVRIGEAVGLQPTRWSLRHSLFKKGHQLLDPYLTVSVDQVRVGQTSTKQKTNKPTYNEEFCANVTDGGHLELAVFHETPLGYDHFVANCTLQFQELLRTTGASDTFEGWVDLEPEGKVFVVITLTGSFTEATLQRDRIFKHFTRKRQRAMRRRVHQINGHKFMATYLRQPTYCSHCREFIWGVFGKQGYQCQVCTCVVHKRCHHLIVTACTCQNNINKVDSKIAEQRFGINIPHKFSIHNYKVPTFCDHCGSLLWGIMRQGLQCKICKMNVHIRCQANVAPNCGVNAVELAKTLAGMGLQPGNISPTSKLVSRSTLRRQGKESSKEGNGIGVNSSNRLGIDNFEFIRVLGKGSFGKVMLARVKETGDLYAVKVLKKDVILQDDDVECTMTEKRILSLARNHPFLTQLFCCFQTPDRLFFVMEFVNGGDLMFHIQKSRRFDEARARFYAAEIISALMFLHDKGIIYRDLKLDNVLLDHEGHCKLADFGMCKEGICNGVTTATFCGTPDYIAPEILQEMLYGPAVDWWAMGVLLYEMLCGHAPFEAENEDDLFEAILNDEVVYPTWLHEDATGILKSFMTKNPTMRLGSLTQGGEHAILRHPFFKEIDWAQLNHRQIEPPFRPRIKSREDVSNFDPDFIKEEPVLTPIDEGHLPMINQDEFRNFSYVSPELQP
Chain of Mitogen-activated protein kinase kinase kinase kinase 5 (Homo sapiens) (Q9Y4K4 whole entry, looked up): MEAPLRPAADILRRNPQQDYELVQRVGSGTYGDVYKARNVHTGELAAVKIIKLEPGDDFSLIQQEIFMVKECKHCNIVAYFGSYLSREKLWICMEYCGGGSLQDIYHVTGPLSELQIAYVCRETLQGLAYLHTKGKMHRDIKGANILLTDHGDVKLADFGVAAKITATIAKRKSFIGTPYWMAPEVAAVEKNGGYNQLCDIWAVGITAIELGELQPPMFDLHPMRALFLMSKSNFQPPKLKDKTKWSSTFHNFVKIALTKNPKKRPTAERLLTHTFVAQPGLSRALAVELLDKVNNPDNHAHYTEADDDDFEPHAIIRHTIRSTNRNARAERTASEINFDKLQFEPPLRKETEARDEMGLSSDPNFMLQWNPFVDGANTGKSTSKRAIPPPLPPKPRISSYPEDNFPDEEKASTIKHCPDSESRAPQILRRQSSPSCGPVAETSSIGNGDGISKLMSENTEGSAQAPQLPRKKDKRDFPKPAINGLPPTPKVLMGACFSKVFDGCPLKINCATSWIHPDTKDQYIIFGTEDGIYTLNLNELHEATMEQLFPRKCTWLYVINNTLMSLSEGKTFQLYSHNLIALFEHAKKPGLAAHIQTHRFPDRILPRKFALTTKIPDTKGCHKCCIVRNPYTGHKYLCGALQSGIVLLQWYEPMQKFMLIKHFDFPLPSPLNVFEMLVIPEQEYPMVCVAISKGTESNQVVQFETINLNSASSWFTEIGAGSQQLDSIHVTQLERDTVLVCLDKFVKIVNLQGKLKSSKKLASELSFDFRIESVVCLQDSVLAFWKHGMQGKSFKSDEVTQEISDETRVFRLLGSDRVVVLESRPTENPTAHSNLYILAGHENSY

SMILES	Activity [1] [%]	Activity [2] [%]	Activity [3] [%]	Activity [4] [%]	Activity [5] [%]	Activity [6] [%]	Activity [7] [%]	Activity [8] [%]	Activity [9] [%]	Activity [10] [%]
CC[C@H](Nc1ncnc2[nH]cnc12)c1nc2cccc(F)c2c(=O)n1-c1ccccc1	93.5	87.8	107	88.5	95.9	99.7	103	88.5	91.3	110
C[C@H](Nc1ncnc2nc[nH]c12)c1cc2cccc(Cl)c2c(=O)n1-c1ccccc1	93.9	86.4	104	91.5	101	111	96.2	87.7	92.3	114
CC(C)Oc1ccc(-c2nn([C@@H](C)c3oc4ccc(F)cc4c(=O)c3-c3cccc(F)c3)c3ncnc(N)c23)cc1F [UMBRALISIB]	91.2	87.3	103	86	99.5	107	98.3	88.4	86	97.4
